Experiment: Stability of substrates and metabolites in quality control samples (benchtop, autosampler, freeze-thaw)
Format: physicochemical
Conditions: for Autosampler stability (24 h) Av. Accuracy (%): 10° C for 24 hours in the autosampler; for 3x freeze-thaw Av. Accuracy (%): after three freeze-thaw cycles; for Benchtop stability (19 h) Ac. Accuracy (%): room temperature for 19 hours
Source text: The method was validated for intra- and interday accuracy and precision, stability, and matrix effects. […] Validation details are provided in Supplementary Tables 5–7 and supplemental Fig. 3. Glucuronidase/sulfatase digests were used to isolate CYP-specific metabolic activities, reducing interference from polymorphic UDP-glucuronosyltransferase (UGT) and sulfotransferase isoforms.
Supplemental table 6: Stability of the substrates and metabolites. Quality control samples were left at room temperature for 19 hours (benchtop stability) and at 10° C for 24 hours in the autosampler (autosampler stability) or were measured after three freeze-thaw cycles. Stability samples were measured against a freshly prepared set of calibrators and quality control samples.

Row | Compound | Autosampler stability (24 h) Av. Accuracy (%) (QC conc. 150 ng/ml) | 3x freeze-thaw Av. Accuracy (%) (QC conc. 150 ng/ml) | Benchtop stability (19 h) Ac. Accuracy (%) (QC conc. 150 ng/ml) | Autosampler stability (24 h) Av. Accuracy (%) (QC conc. 0,5 ng/ml) | 3x freeze-thaw Av. Accuracy (%) (QC conc. 0,5 ng/ml) | Benchtop stability (19 h) Ac. Accuracy (%) (QC conc. 0,5 ng/ml) | Autosampler stability (24 h) Av. Accuracy (%) (QC conc. 0,25 ng/ml) | 3x freeze-thaw Av. Accuracy (%) (QC conc. 0,25 ng/ml) | Benchtop stability (19 h) Ac. Accuracy (%) (QC conc. 0,25 ng/ml) | Autosampler stability (24 h) Av. Accuracy (%) (QC conc. 60 ng/ml) | 3x freeze-thaw Av. Accuracy (%) (QC conc. 60 ng/ml) | Benchtop stability (19 h) Ac. Accuracy (%) (QC conc. 60 ng/ml) | Autosampler stability (24 h) Av. Accuracy (%) (QC conc. 1,5 ng/ml) | 3x freeze-thaw Av. Accuracy (%) (QC conc. 1,5 ng/ml) | Benchtop stability (19 h) Ac. Accuracy (%) (QC conc. 1,5 ng/ml) | other results
1 | O=C1Nc2ccc(Cl)cc2[C@@](C#CC2CC2)(C(F)(F)F)O1 [efavirenz, reference compound] | 115,3% | 112,08% | 111,5% |  |  |  |  |  |  |  |  |  |  |  |  | Autosampler stability (24 h) Av. Accuracy (%) (QC conc. 0,63 ng/ml): 109,58%; 3x freeze-thaw Av. Accuracy (%) (QC conc. 0,63 ng/ml): 124,41%; Benchtop stability (19 h) Ac. Accuracy (%) (QC conc. 0,63 ng/ml): 92,21%; Autosampler stability (24 h) Av. Accuracy (%) (QC conc. 375 ng/ml): 106,16%; 3x freeze-thaw Av. Accuracy (%) (QC conc. 375 ng/ml): 107,17%; Benchtop stability (19 h) Ac. Accuracy (%) (QC conc. 375 ng/ml): 104,9%; Autosampler stability (24 h) Av. Accuracy (%) (QC conc. 1,25 ng/ml): 114,46%; 3x freeze-thaw Av. Accuracy (%) (QC conc. 1,25 ng/ml): 117,78%; Benchtop stability (19 h) Ac. Accuracy (%) (QC conc. 1,25 ng/ml): 102,48%; Autosampler stability (24 h) Av. Accuracy (%) (QC conc. 3,75 ng/ml): 114,56%; 3x freeze-thaw Av. Accuracy (%) (QC conc. 3,75 ng/ml): 111,15%; Benchtop stability (19 h) Ac. Accuracy (%) (QC conc. 3,75 ng/ml): 107,06%
2 | COCC(O)c1ccc(OCC(O)CNC(C)C)cc1 (stereo not drawn) [OH-metoprolol] | 88,29% | 87,96% | 88,26% | 101,05% | 95,27% | 90,1% | 90,24% | 85,17% | 81,14% | 97,01% | 91,98% | 95,47% | 96,56% | 95,33% | 94,57% | 
3 | OCc1ncc2n1-c1ccc(Cl)cc1C(c1ccccc1F)=NC2 [1-OH-midazolam] |  |  |  |  |  |  |  |  |  | 105,87% | 100,47% | 105,11% |  |  |  | Autosampler stability (24 h) Av. Accuracy (%) (QC conc. 0,2 ng/ml): 102,59%; 3x freeze-thaw Av. Accuracy (%) (QC conc. 0,2 ng/ml): 108,6%; Benchtop stability (19 h) Ac. Accuracy (%) (QC conc. 0,2 ng/ml): 82,15%; Autosampler stability (24 h) Av. Accuracy (%) (QC conc. 0,6 ng/ml): 107,25%; 3x freeze-thaw Av. Accuracy (%) (QC conc. 0,6 ng/ml): 109,36%; Benchtop stability (19 h) Ac. Accuracy (%) (QC conc. 0,6 ng/ml): 102,06%; Autosampler stability (24 h) Av. Accuracy (%) (QC conc. 24 ng/ml): 113,74%; 3x freeze-thaw Av. Accuracy (%) (QC conc. 24 ng/ml): 106,45%; Benchtop stability (19 h) Ac. Accuracy (%) (QC conc. 24 ng/ml): 112,46%
4 | COc1ccc2nc([S+]([O-])Cc3ncc(CO)c(OC)c3C)[nH]c2c1 (stereo not drawn) [5-OH-omeprazole] | 97,73% | 100,57% | 92,79% | 112,52% | 105,73% | 95,94% | 90,94% | 101,98% | 99,1% | 104,61% | 99,23% | 99,68% | 102,58% | 103,03% | 98,98% | 
5 | CC(C)NC(=O)NS(=O)(=O)c1cnccc1Nc1cccc(CO)c1 [OH-torsemide] |  |  |  |  |  |  |  |  |  |  |  |  |  |  |  | Autosampler stability (24 h) Av. Accuracy (%) (QC conc. 1 ng/ml): 109,17%; 3x freeze-thaw Av. Accuracy (%) (QC conc. 1 ng/ml): 105,26%; Benchtop stability (19 h) Ac. Accuracy (%) (QC conc. 1 ng/ml): 106,91%; Autosampler stability (24 h) Av. Accuracy (%) (QC conc. 2 ng/ml): 113,11%; 3x freeze-thaw Av. Accuracy (%) (QC conc. 2 ng/ml): 105,85%; Benchtop stability (19 h) Ac. Accuracy (%) (QC conc. 2 ng/ml): 107,98%; Autosampler stability (24 h) Av. Accuracy (%) (QC conc. 6 ng/ml): 109,32%; 3x freeze-thaw Av. Accuracy (%) (QC conc. 6 ng/ml): 107,78%; Benchtop stability (19 h) Ac. Accuracy (%) (QC conc. 6 ng/ml): 111,3%; Autosampler stability (24 h) Av. Accuracy (%) (QC conc. 240 ng/ml): 108,82%; 3x freeze-thaw Av. Accuracy (%) (QC conc. 240 ng/ml): 104,11%; Benchtop stability (19 h) Ac. Accuracy (%) (QC conc. 240 ng/ml): 106,75%; Autosampler stability (24 h) Av. Accuracy (%) (QC conc. 600 ng/ml): 99,55%; 3x freeze-thaw Av. Accuracy (%) (QC conc. 600 ng/ml): 96,28%; Benchtop stability (19 h) Ac. Accuracy (%) (QC conc. 600 ng/ml): 99,14%
